Measured values published in paper PMC3948622, “Docking, Synthesis and Antiproliferative Activity of N-Acylhydrazone Derivatives Designed as Combretastatin A4 Analogues” (PLoS ONE, 2014).
In brackets after ≈: the same amount, converted by molar mass. Like-named read-outs stand apart in the source and are kept apart here.

How the values were obtained:
[1] = Aqueous solubility assay by ultraviolet spectroscopy; type: physicochemical; details: water (saturated aqueous solution), thermodynamic from solid, 2 hours at 37°C, read-out: Aq. Solubility
Procedure: Ultraviolet spectroscopy was performed using Femto spectrophotometer. The wavelength used in solubility assay was determined by the -λ max characteristic of each compound. Spectra were analyzed in Femtoscan software. Mass spectrometry was obtained by positive ionization at Bruker AmaZon SL and data analyzed in Compass 1.3.SR2 software.
The solubility assay was performed considering the absorptivity of compounds in ultraviolet spectroscopy as described by Schneider and coworkers. The assay wavelength was determined by the λ max characteristic of each compound.
Saturated aqueous solutions were prepared (0.01 mg/mL) and were kept under stirring for 2 hours at 37°C. The supernatant was filtered in 0,45 µm filters and transferred to a quartz cuvette (10 mm) to spectra acquisition.
Solubility was determined by linear regression using as graph plots, solutions prepared by dilutions of the original solution in methanol. The data were obtained in triplicates and the mean values were used to the graph plots. The correlation coefficient (R^2) values were between 0.9972 and 0.9999.

HL-60 (human leukemia) = experiment: In vitro antiproliferative MTT assay, HL-60; type: cell-based; details: for IC50: Homo sapiens, HL-60; for SI Lymphocyte/ HL-60: IC50 for human lymphocytes/IC50 for cancer cell line
Procedure: (§1) The antiproliferative activity of compounds 5a–r was determined based on an MTT assay and using CA-4 as standard against the tumor cell lines: HL-60 (human leukemia), SF-295 (human glioblastoma), MDA-MB435 (melanoma), PC3M (prostate cancer), OVCAR-8 (ovaries adenocarcinoma), NCI-H258M (pulmonary bronchio-alveolar carcinoma) and HCT-8 (adenocarcinoma ileocecal) (Table 2). To determine the selectivity index of compounds 5a–r, their antiproliferative profile was also evaluated toward human lymphocytes (Table 2).
(§2) Compounds (0.009–5 µg/mL) were tested for cytotoxic activity against selected cancer cell lines: SF-295 (glioblastoma), HCT-8 (colon), MDAMB-435 (melanoma), HL60 (leukemia), PC3M (prostate cancer), OVCAR-8 (ovaries adenocarcinoma) and NCI-H258M (pulmonary bronchio-alveolar carcinoma). All cell lines were kindly obtained from the National Cancer Institute (Bethesda, MD, USA).Tumor cell proliferation was quantified through the ability of living cells to reduce the yellow dye 3-(4,5-dimethyl-2-thiazolyl)-2,5-diphenyl-2H-tetrazolium bromide (MTT, Sigma Aldrich)) to a purple formazan product and absorbance was measured at 595 nm (DTX-880, Beckman Coulter).

[2] = system: SF-295 (human glioblastoma); experiment: In vitro antiproliferative MTT assay, SF-295; type: cell-based; details: for IC50: Homo sapiens, SF-295, read-out: IC50 SF295; for SI Lymphocyte/ SF-295: IC50 for human lymphocytes/IC50 for cancer cell line
Procedure: as §1, §2

[3] = system: HCT-8 (adenocarcinoma ileocecal); experiment: In vitro antiproliferative MTT assay, HCT-8; type: cell-based; details: for IC50: Homo sapiens, HCT-8; for SI Lymphocyte/ HCT-8: IC50 for human lymphocytes/IC50 for cancer cell line
Procedure: as §1, §2

MDA-MB435 (melanoma) [4] = experiment: In vitro antiproliferative MTT assay, MDA-MB435; type: cell-based; details: IC50 for human lymphocytes/IC50 for cancer cell line
Procedure: as §1, §2

PC3M (prostate cancer) = experiment: In vitro antiproliferative MTT assay, PC3M; type: cell-based; details: for IC50: Homo sapiens, PC-3M, Table 2, MTT; for SI Lymphocyte/ PC3M: IC50 for human lymphocytes/IC50 for cancer cell line
Procedure: as §1, §2

[5] = system: OVCAR-8 (ovaries adenocarcinoma); experiment: In vitro antiproliferative MTT assay, OVCAR-8; type: cell-based; details: for IC50: Homo sapiens, OVCAR-8, Table 2, MTT; for SI Lymphocyte/ OVCAR-8: IC50 for human lymphocytes/IC50 for cancer cell line
Procedure: as §1, §2

[6] = system: NCI-H358M (pulmonary bronchio-alveolar carcinoma); experiment: In vitro antiproliferative MTT assay, NCI-H358M; type: cell-based; details: for SI Lymphocyte/ NCI-H358M: IC50 for human lymphocytes/IC50 for cancer cell line; for IC50: NCI-H358M, Table 2, MTT
human lymphocytes = experiment: In vitro antiproliferative assay, human lymphocytes; type: cell-based; details: Lymphocyte, Table 2
Procedure: as §1
To investigate the selective cytotoxic activity of the N-acylhydrazones derivatives (5a–r), their antiproliferative potency was also assessed toward human lymphocytes and the results were compared to the data from CA-4 ([…]). The selectivity index (SI), which was the IC50 for human lymphocytes/IC50 for cancer cell lines after treatment with CA-4 and N-acylhydrazones (5a–r), was calculated, as depicted in Table 3. […] The best comparative selectivity indices (CA-4 vs 5b) were obtained from the SF-295 (SI = 13), MDA-MB435 (SI = 42) and NCI-H258M (SI = 9.5) tumor cell lines, and the worst results were found for OVCAR-8 (SI = 0.5).

MDA-MB435 (melanoma) [7] = experiment: In vitro antiproliferative MTT assay, MDA-MB435; type: cell-based; details: Homo sapiens, MDA-MB-435

SMILES	solubility at 2 h [1]	IC50 (HL-60 (human leukemia); Table 2, MTT)	SI Lymphocyte/ HL-60 (HL-60 (human leukemia))	IC50 ([2]; Table 2, MTT)	SI Lymphocyte/ SF-295 [2]	IC50 ([3]; Table 2, MTT)	SI Lymphocyte/ HCT-8 [3]	SI Lymphocyte/ MDA-MB345 (MDA-MB435 (melanoma) [4])	IC50 (PC3M (prostate cancer))	IC50 [5]	SI Lymphocyte/ NCI-H358M [6]	IC50 [6]	IC50 (human lymphocytes)	IC50 (MDA-MB435 (melanoma) [7]; Table 2, MTT)	SI Lymphocyte/ PC3M (PC3M (prostate cancer))	SI Lymphocyte/ OVCAR-8 [5]	melting point	other results
COc1ccc(/C=C\c2cc(OC)c(OC)c(OC)c2)cc1O [CA-4, Combretastatin A4]	5.44 µg/mL (≈ 17.2 µM)	2.1 nM	1.44±0.05	0.0062 µM	0.44±0.04	5.3 nM	0.59±0.01	0.42±0.02	0.0047 µM	0.00037 µM	0.52±0.12	0.008 µM	0.0032 µM	7.9 nM				
COc1cc(C(=O)N/N=C/c2cccc(O)c2)cc(OC)c1OC [Compound 5c, (E)-N′-(3-hydroxybenzylidene)-3,4,5-trimetoxybenzohydrazide]	5.68 µg/mL (≈ 17.2 µM)	1630 nM	2.60±0.10	13.1 µM	0.32±0.02	4300 nM	0.96±0.35	32.50±4.50	7.51 µM	5.78 µM	0.48±0.01	9.5 µM	4.48 µM	120 nM	0.58±0.01	0.80±0.005	227 to 229 °C	
COc1cc(C(=O)N/N=C/c2ccc(O)cc2)cc(OC)c1OC [Compound 5d, (E)-N′-(4-hydroxybenzylidene)-3,4,5-trimetoxybenzohydrazide]	15 µg/mL (≈ 45.4 µM)	2630 nM	5.15±0.05	16 µM	0.82±0.02	6540 nM	2.07±0.07	16.06±0.86	4.57 µM	6.18 µM	1.16±0.06	11.8 µM	13.4 µM	880 nM	2.96±0.86	2.22±0.02	189 °C	
COc1cc(C(=O)N/N=C/c2ccc(O)c(O)c2)cc(OC)c1OC [Compound 5e, (E)-N′-(3,4-dihydroxybenzylidene)-3,4,5-trimetoxybenzohydrazide]	3.94 µg/mL (≈ 11.4 µM)	9300 nM	0.82±0.02	> 25 µM		> 25000 nM		0.06±0.00	24.4 µM	> 25 µM	0.30±0.00	> 25 µM	7.36 µM	11800 nM	0.30±0.005	0.2±0.00	160 °C	
COc1ccc(/C=N/NC(=O)c2cc(OC)c(OC)c(OC)c2)cc1OC [Compound 5g, (E)-N′-(3,4-dimethoxybenzylidene)-3,4,5-trimetoxybenzohydrazide]	1.94 µg/mL (≈ 5.18 µM)	4430 nM	4.10±0.10	18.1 µM	0.99±0.005	7050 nM	2.50±0.005	8.41±0.09	12.6 µM	7.11 µM	1.80±0.005	10.2 µM	18 µM	2110 nM	1.44±0.04	2.55±0.05	190 to 191 °C	
COc1cc(C(=O)N/N=C/c2ccc(C)cc2)cc(OC)c1OC [Compound 5o, (E)-3,4,5-trimethoxy-N′-(4-methylbenzylidene) benzohydrazide]	6.93 µg/mL (≈ 21.1 µM)	4.8 nM	1.59±0.09	0.093 µM	0.08±0.00	46 nM	0.15±0.005	0.21±0.01	0.0127 µM	0.0082 µM	0.009±0.001	0.891 µM	0.0073 µM	35 nM	0.56±0.04	0.91±0.01		
COc1cc(C(=O)N/N=C/c2ccc(Br)cc2)cc(OC)c1OC [Compound 5r, (E)-N′-(4-bromobenzylidene) - 3,4,5-trimetoxybenzohyidrazide]	0.262 µg/mL (≈ 0.666 µM)	10.9 nM	3.07±0.83	0.059 µM	0.49±0.05	22 nM	1.57±0.17	1.81	0.0127 µM	0.0073 µM	0.19±0.01	0.167 µM	0.0314 µM	18.3 nM	2.29±0.20	4.02±0.28		
COc1cc(C(=O)N(C)/N=C/c2ccccc2)cc(OC)c1OC [Compound 11, (E)-N′-benzylidene-3,4,5-trimethoxy-N-methylbenzohydrazide]																	71 to 73 °C	IC50 (HL-60 (human leukemia); Table 4): 30 nM; IC50 ([2]; Table 4): 3.8 µM; IC50 ([3]; Table 4): 540 nM; IC50 (MDA-MB435 (melanoma) [7]; Table 4): 1910 nM
